Source: the supplement of paper PMC11451515

System: NOMO1
Test: cell viability relative to DMSO control; higher = less cytotoxic
Settings: 48 h
Method in brief: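 Library compounds in DMSO were pin-dosed in an 11-point threefold series (47 μM to 0.79 nM) onto leukemia cells in 1536-well plates (5 μl). Plates held 500 cells/well of NOMO1 or SEM or 1000 cells/well of P12-Ichikawa, each adapted for at least four passages in each medium. Luminescence was read with CellTiter-Glo One after 48 h at 37°C. Viability means the per-plate percentage relative to DMSO wells, using cell-free wells as background.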

[1] = HPLM + 10% dialyzed FBS, 0.000781 µM
[2] = HPLM + 10% dialyzed FBS, 0.00234 µM
[3] = HPLM + 10% dialyzed FBS, 0.00702 µM
[4] = HPLM + 10% dialyzed FBS, 0.0211 µM
[5] = HPLM + 10% dialyzed FBS, 0.0632 µM
[6] = HPLM + 10% dialyzed FBS, 0.19 µM
[7] = HPLM + 10% dialyzed FBS, 0.569 µM
[8] = HPLM + 10% dialyzed FBS, 1.71 µM
[9] = HPLM + 10% dialyzed FBS, 5.12 µM
[10] = HPLM + 10% dialyzed FBS, 15.4 µM
[11] = HPLM + 10% dialyzed FBS, 46.1 µM
[12] = RPMI 5 mM glucose + 10% FBS, 0.000781 µM
[13] = RPMI 5 mM glucose + 10% FBS, 0.00234 µM
[14] = RPMI 5 mM glucose + 10% FBS, 0.00702 µM
[15] = RPMI 5 mM glucose + 10% FBS, 0.0211 µM
[16] = RPMI 5 mM glucose + 10% FBS, 0.0632 µM
[17] = RPMI 5 mM glucose + 10% FBS, 0.19 µM
[18] = RPMI 5 mM glucose + 10% FBS, 0.569 µM
[19] = RPMI 5 mM glucose + 10% FBS, 1.71 µM
[20] = RPMI 5 mM glucose + 10% FBS, 5.12 µM
[21] = RPMI 5 mM glucose + 10% FBS, 15.4 µM
[22] = RPMI 5 mM glucose + 10% FBS, 46.1 µM
[23] = RPMI 5 mM glucose + 10% dialyzed FBS, 0.000781 µM
[24] = RPMI 5 mM glucose + 10% dialyzed FBS, 0.00234 µM
[25] = RPMI 5 mM glucose + 10% dialyzed FBS, 0.00702 µM
[26] = RPMI 5 mM glucose + 10% dialyzed FBS, 0.0211 µM
[27] = RPMI 5 mM glucose + 10% dialyzed FBS, 0.0632 µM
[28] = RPMI 5 mM glucose + 10% dialyzed FBS, 0.19 µM
[29] = RPMI 5 mM glucose + 10% dialyzed FBS, 0.569 µM
[30] = RPMI 5 mM glucose + 10% dialyzed FBS, 1.71 µM
[31] = RPMI 5 mM glucose + 10% dialyzed FBS, 5.12 µM
[32] = RPMI 5 mM glucose + 10% dialyzed FBS, 15.4 µM
[33] = RPMI 5 mM glucose + 10% dialyzed FBS, 46.1 µM

Compound | cell viability [1] [%] | cell viability [2] [%] | cell viability [3] [%] | cell viability [4] [%] | cell viability [5] [%] | cell viability [6] [%] | cell viability [7] [%] | cell viability [8] [%] | cell viability [9] [%] | cell viability [10] [%] | cell viability [11] [%] | cell viability [12] [%] | cell viability [13] [%] | cell viability [14] [%] | cell viability [15] [%] | cell viability [16] [%] | cell viability [17] [%] | cell viability [18] [%] | cell viability [19] [%] | cell viability [20] [%] | cell viability [21] [%] | cell viability [22] [%] | cell viability [23] [%] | cell viability [24] [%] | cell viability [25] [%] | cell viability [26] [%] | cell viability [27] [%] | cell viability [28] [%] | cell viability [29] [%] | cell viability [30] [%] | cell viability [31] [%] | cell viability [32] [%] | cell viability [33] [%]
CCCCC(C=O)NC(=O)C(CC(C)C)NC(=O)OCc1ccccc1 (configuration not stated) | 104 | 98.5 | 86.4 | 94.7 | 85.5 | 83 | 92.2 | 82.7 | 89.4 | 82 | 55.9 | 91.8 | 93.3 | 90.1 | 102 | 93.7 | 88.9 | 85.4 | 72.7 | 80.2 | 68.6 | 77.6 | 103 | 93.3 | 95.1 | 97.4 | 101 | 83.9 | 90.4 | 82.2 | 77.6 | 80.9 | 70.1
CC[C@@]1(O)C(=O)OCC/2=C1/C=C3\N(CC4=CC5=CC(=CC=C5N=C34)O)C2=O |  |  |  |  |  |  |  |  |  |  |  | 116 | 123 | 133 | 107 | 113 | 33.3 | 23.8 | 22.6 | 18.6 | 22.8 | 13.4 | 111 | 124 | 117 | 117 | 121 | 40.4 | 23.8 | 25.8 | 24.5 | 26.4 | 9.6
CN(C)c1nc(Cc2ccc(NC(=O)c3ccc4ccccc4c3)cc2)nc(Cl)c1CC(=O)O | 113 | 116 | 112 | 126 | 114 | 90.9 | 106 | 65.2 | 57.6 | 47.2 | 48.1 | 115 | 98.2 | 100 | 98.3 | 100 | 97 | 97.1 | 74.3 | 73 | 61.8 | 44.4 | 108 | 110 | 98.6 | 106 | 111 | 99.4 | 92.9 | 62.1 | 63.1 | 60.7 | 43.6
CC1(N2CCC(n3c([C@@H]4CCCNC4)nc4ccccc43)CC2)CCCCCCC1 | 77.1 | 100 | 112 | 111 | 127 | 116 | 116 | 101 | 94 | 45.4 | 7.21 | 93.6 | 103 | 102 | 112 | 108 | 124 | 112 | 120 | 109 | 97.7 | 53.5 | 91 | 108 | 122 | 115 | 121 | 104 | 130 | 134 | 98.4 | 69.4 | 17.8
O=C(Nc1ncc(-c2cc(C(F)F)nn2-c2c(Cl)cccc2Cl)s1)C1CC1 | 120 | 107 | 120 | 117 | 132 | 138 | 137 | 99.1 | 44.4 | 62.8 | 49 |  |  |  |  |  |  |  |  |  |  |  |  |  |  |  |  |  |  |  |  |  | 
C[C@]12CC[C@@H]3c4ccc(O)cc4CC[C@H]3[C@@H]1C[C@@H](O)[C@@H]2O |  |  |  |  |  |  |  |  |  |  |  | 116 | 114 | 106 | 114 | 114 | 107 | 123 | 117 | 118 | 118 | 115 | 115 | 121 | 129 | 125 | 120 | 110 | 114 | 113 | 110 | 105 | 95.9
OC(=O)C(CC/1=C/C(=O)NC2=CC=CC=C12)NC(=O)C3=CC=C(Cl)C=C3 (configuration not stated) | 95.6 | 117 | 136 | 121 | 130 | 121 | 131 | 122 | 131 | 136 | 110 | 121 | 122 | 121 | 134 | 132 | 127 | 140 | 155 | 137 | 135 | 134 | 114 | 125 | 147 | 127 | 139 | 137 | 136 | 135 | 134 | 132 | 143
Nc1cccc2c1CN([C@H]1CCC(=O)NC1=O)C2=O |  |  |  |  |  |  |  |  |  |  |  | 125 | 118 | 124 | 123 | 112 | 114 | 98.3 | 105 | 99.7 | 82.1 | 112 | 101 | 111 | 120 | 104 | 114 | 108 | 107 | 109 | 103 | 88.4 | 107
COc1ccc2[nH]c([S+]([O-])Cc3ncc(C)c(OC)c3C)nc2c1 (configuration not stated) | 89.2 | 78.3 | 90.9 | 88.4 | 95.9 | 83.7 | 85.5 | 89.9 | 87.3 | 86.6 | 59.8 | 74.9 | 100 | 78.3 | 97 | 80.7 | 92 | 90 | 100 | 96.3 | 93.5 | 89.1 | 70.7 | 91.7 | 68 | 98.7 | 93.4 | 95.6 | 87.8 | 97.9 | 86 | 91.1 | 82.3
